Test results published in US4921953A, “Cephalosporin derivatives” (Taisho Pharmaceutical Co., Ltd., priority 1988, dated 1990).
≈ marks a conversion by molar mass, not a printed value. Counter-ions that a name gives are not always drawn. Like-named read-outs stand apart in the source and are kept apart here.

Tests used:
[1] = tested on: Staphylococcus epidermidis sp-al-1; test: antibacterial activity, agar plate dilution method (MIC); type: cell-based
Method: (§1) The antibacterial activity against various bacteria was measured by the agar plate dilution method (inoculum size: 10^6 cells/ml), and the results are shown in the following Table 1.

[2] = tested on: Eschelichia coli NIHJ JC-2; test: as above; type: cell-based; conditions: read-out: Minimum Inhibitory Concentration (MIC)
Method: as §1

[3] = tested on: Entercococcus faecalis ATCC 8043; test: as above; type: cell-based; conditions: read-out: Minimum Inhibitory Concentration (MIC)
Method: as §1

[4] = tested on: Staphylococcus aureus 209P-JC; test: as above; type: cell-based; conditions: read-out: Minimum Inhibitory Concentration (MIC)
Method: as §1

[5] = tested on: Staphylococcus aureus K-1; test: as above; type: cell-based
Method: as §1

[6] = tested on: Eschelichia coli A13; test: as above; type: cell-based; conditions: read-out: Minimum Inhibitory Concentration (MIC)
Method: as §1

[7] = in vivo; set-up: species or system male Japanese native strain white rabbits; conditions: blood, rabbit, oral, 20 mg/kg suspended in 5% gum arabic, bioassay (Bacillus luteus S1101)
Method: Three male Japanese native strain white rabbits weighing 2.50 to 3.15 kg for each group were administered orally with the test compounds, and the change of the concentration of the compound in blood was measured.
Dosage of the test compound: 20 mg/kg (suspended in 5% gum arabic).
Quantitative method: Bioassy method (test bacterium: Bacillus luteus S1101).

[8] = SPAL1, Staphylococcus epidermidis sp-al-1, inoculum size: 10^6 cells/ml, read-out: Minimum Inhibitory Concentration (MIC)
[9] = Entercococcus faecalis ATCC 8043, inoculum size: 10^6 cells/ml
[10] = K1, Staphylococcus aureus K-1, inoculum size: 10^6 cells/ml, read-out: Minimum Inhibitory Concentration (MIC)
[11] = Eschelichia coli A13, inoculum size: 10^6 cells/ml
[12] = Eschelichia coli NIHJ JC-2, inoculum size: 10^6 cells/ml
[13] = Staphylococcus aureus 209P-JC, inoculum size: 10^6 cells/ml
[14] = Staphylococcus aureus, K1, read-out: Minimum Inhibitory Concentration (MIC)
[15] = Staphylococcus epidermidis, SPAL1, read-out: Minimum Inhibitory Concentration (MIC)

C=CC1=C(C(=O)O)N2C(=O)[C@@H](NC(=O)/C(=N\OCC(=O)O)c3csc(N)n3)[C@H]2SC1 [E, Cefixime sodium salt, reference compound]
MIC [1, 8]: 50 µg/mL | MIC [2]: 0.39 µg/mL | MIC [3, 9]: > 100 µg/mL | MIC ([4]; Staphylococcus aureus, 209P): 12.5 µg/mL | MIC [5, 10]: > 100 µg/mL | MIC [6, 11]: > 100 µg/mL

C=CCSC1=C(C(=O)O)N2C(=O)[C@@H](NC(=O)/C(=N\O)c3csc(N)n3)[C@H]2SC1 [C]
MIC [1, 8]: 0.39 µg/mL (≈ 0.883 µM) | MIC [2, 12]: 0.2 µg/mL (≈ 0.453 µM) | MIC [3]: 12.5 µg/mL (≈ 28.3 µM) | MIC [4, 13]: 0.2 µg/mL (≈ 0.453 µM) | MIC [5, 14]: 6.25 µg/mL (≈ 14.2 µM) | MIC [6]: 6.25 µg/mL (≈ 14.2 µM)

N#CCSC1=C(C(=O)[O-])N2C(=O)[C@@H](NC(=O)/C(=N\O)c3csc(N)n3)[C@H]2SC1.[Na+]
MIC [1, 15]: 0.78 µg/mL | MIC [2]: 0.2 µg/mL | MIC [3]: 1.56 µg/mL | MIC ([4]; Staphylococcus aureus, 209P): 0.2 µg/mL | MIC [5, 14]: 0.78 µg/mL | MIC [6]: 1.56 µg/mL | concentration at 4 h ([7]; Four Hours after administration): 2500 ng/mL | concentration at 1 h ([7]; One Hour after administration): 2500 ng/mL | concentration at 2 h ([7]; Two Hours after administration): 4000 ng/mL

CC1=C(C(=O)O)N2C(=O)[C@@H](NC(=O)[C@H](N)c3ccccc3)[C@H]2SC1 [D, Cephalexin, reference compound]
MIC [1, 15]: 1.56 µg/mL (≈ 4.49 µM) | MIC [2]: 6.25 µg/mL (≈ 18 µM) | MIC [3]: 100 µg/mL (≈ 288 µM) | MIC ([4]; Staphylococcus aureus, 209P): 0.78 µg/mL (≈ 2.25 µM) | MIC [5, 14]: > 100 µg/mL | MIC [6]: > 100 µg/mL

Nc1nc(/C(=N/O)C(=O)N[C@@H]2C(=O)N3C(C(=O)O)=C(SCCF)CS[C@H]23)cs1 [B]
MIC [1, 8]: 0.78 µg/mL (≈ 1.74 µM) | MIC [2, 12]: 0.39 µg/mL (≈ 0.872 µM) | MIC [3, 9]: 25 µg/mL (≈ 55.9 µM) | MIC [4, 13]: 0.39 µg/mL (≈ 0.872 µM) | MIC [5, 10]: 0.78 µg/mL (≈ 1.74 µM) | MIC [6, 11]: 6.25 µg/mL (≈ 14 µM)
